Article PMC6547681 (Nature Communications, 2019)

How the values were obtained:
[1] = system: KMS-12-PE cells expressing BCL-2 G101V; experiment: CellTiter-Glo cell viability, KMS-12-PE cells overexpressing BCL-2 G101V; details: read-out: S55746 LC50, KMS-12-PE overexpressing BCL-2 G101V, 24 h, mean ± SD, n = 3
Description: (§1) KMS-12-PE (sourced from DSMZ in 2013; Cat#ACC606) were cultured with HTRPMI with 10% fetal bovine serum. Early passages (P5-P7) after purchase were cryopreserved and thawed for the experiments. Cells beyond passage 15 were not used. Monthly tests for mycoplasma were consistently negative (MycoAlert mycoplasma detection kit; Lonza, GA, USA).
(§2) Cell viability 24 h after treatment was then determined using the CellTiter-Glo assay (Promega, Cat#G9241). […] Experiments were performed on three separate occasions; the data is shown as the means ± SD of those three independent experiments.

[2] = system: KMS-12-PE cells expressing BCL-2 WT; experiment: CellTiter-Glo cell viability, KMS-12-PE cells overexpressing BCL-2 WT; details: read-out: S55746 LC50, KMS-12-PE overexpressing BCL-2 WT, 24 h, mean ± SD, n = 3
Description: as §1, §2

[3] = system: BCL-2 G101V; experiment: Steady-state competition SPR against immobilised BIMBH3 peptide, BCL-2 G101V; format: binding, human
Description: SPR experiments were performed as previously described. […] The lowest concentrations used in direct binding experiments were 1 nM for BIAcore 4000 and 0.1 nM for BIAcore S200 instruments, concentrations below these were below the sensitivity thresholds for the instruments. […] Direct binding experiments were fitted to a 1:1 binding site kinetic model, fitting on and off rates, in BIAevaluation software. For competition experiments steady-state responses were determined in BIAevaluation software according to the software defaults in affinity evaluation mode averaging responses for 5 sec. […] All affinity measurements were performed in at least two independent experiments using independent protein preparations.

O=C(c1cc(-c2cc3c(cc2C(=O)N2Cc4ccccc4C[C@H]2CN2CCOCC2)OCO3)n2c1CCCC2)N(c1ccccc1)c1ccc(O)cc1 [S55746]
CC50 [1]: 2.7 ± 0.43 µM
CC50 [2]: 0.32 ± 0.15 µM
S55746 binding weaker than venetoclax ([3]; BCL-2 G101V): > 10 fold
Raw data values in Figure 3g (SPR response) ([3]; S55746 concentration 20, BCL-2 concentration 10 nM, independent experiment 1): 59.4981
Raw data values in Figure 3g (SPR response) ([3]; S55746 concentration 20, BCL-2 concentration 10 nM, independent experiment 2): 173.158
Raw data values in Figure 3g (SPR response) ([3]; S55746 concentration 20, BCL-2 concentration 10 nM, independent experiment 3): 34.4335
Raw data values in Figure 3g (SPR response) ([3]; S55746 concentration 20, BCL-2 concentration 20 nM, independent experiment 1): 71.3826
Raw data values in Figure 3g (SPR response) ([3]; S55746 concentration 20, BCL-2 concentration 20 nM, independent experiment 2): 232.183
Raw data values in Figure 3g (SPR response) ([3]; S55746 concentration 20, BCL-2 concentration 20 nM, independent experiment 3): 41.9552
Raw data values in Figure 3g (SPR response) ([3]; S55746 concentration 20, BCL-2 concentration 30 nM, independent experiment 1): 77.2987
Raw data values in Figure 3g (SPR response) ([3]; S55746 concentration 20, BCL-2 concentration 30 nM, independent experiment 2): 262.629
Raw data values in Figure 3g (SPR response) ([3]; S55746 concentration 20, BCL-2 concentration 30 nM, independent experiment 3): 45.3747
Raw data values in Figure 3g (SPR response) ([3]; S55746 concentration 20, BCL-2 concentration 40 nM, independent experiment 1): 80.4228
Raw data values in Figure 3g (SPR response) ([3]; S55746 concentration 20, BCL-2 concentration 40 nM, independent experiment 2): 280.533
Raw data values in Figure 3g (SPR response) ([3]; S55746 concentration 20, BCL-2 concentration 40 nM, independent experiment 3): 47.3992
Raw data values in Figure 3g (SPR response) ([3]; S55746 concentration 20, BCL-2 concentration 50 nM, independent experiment 1): 83.2844
Raw data values in Figure 3g (SPR response) ([3]; S55746 concentration 20, BCL-2 concentration 50 nM, independent experiment 2): 293.102
Raw data values in Figure 3g (SPR response) ([3]; S55746 concentration 20, BCL-2 concentration 50 nM, independent experiment 3): 48.7371
Raw data values in Figure 3g (SPR response) ([3]; S55746 concentration 20, BCL-2 concentration 60 nM, independent experiment 1): 85.1797
Raw data values in Figure 3g (SPR response) ([3]; S55746 concentration 20, BCL-2 concentration 60 nM, independent experiment 2): 302.908
Raw data values in Figure 3g (SPR response) ([3]; S55746 concentration 20, BCL-2 concentration 60 nM, independent experiment 3): 49.7741
Raw data values in Figure 3g (SPR response) ([3]; S55746 concentration 20, BCL-2 concentration 70 nM, independent experiment 1): 86.4751
Raw data values in Figure 3g (SPR response) ([3]; S55746 concentration 20, BCL-2 concentration 70 nM, independent experiment 2): 309.956
Raw data values in Figure 3g (SPR response) ([3]; S55746 concentration 20, BCL-2 concentration 70 nM, independent experiment 3): 50.4376
Raw data values in Figure 3g (SPR response) ([3]; S55746 concentration 20, BCL-2 concentration 80 nM, independent experiment 1): 87.9511
Raw data values in Figure 3g (SPR response) ([3]; S55746 concentration 20, BCL-2 concentration 80 nM, independent experiment 2): 316.608
Raw data values in Figure 3g (SPR response) ([3]; S55746 concentration 20, BCL-2 concentration 80 nM, independent experiment 3): 51.0592
Raw data values in Figure 3g (SPR response) ([3]; S55746 concentration 20, BCL-2 concentration 100 nM, independent experiment 1): 89.5861
Raw data values in Figure 3g (SPR response) ([3]; S55746 concentration 20, BCL-2 concentration 100 nM, independent experiment 2): 324.599
Raw data values in Figure 3g (SPR response) ([3]; S55746 concentration 20, BCL-2 concentration 100 nM, independent experiment 3): 51.7173
Raw data values in Figure 3g (SPR response) ([3]; S55746 concentration 20, BCL-2 concentration 150 nM, independent experiment 1): 91.8559
Raw data values in Figure 3g (SPR response) ([3]; S55746 concentration 20, BCL-2 concentration 150 nM, independent experiment 2): 337.351
Raw data values in Figure 3g (SPR response) ([3]; S55746 concentration 20, BCL-2 concentration 150 nM, independent experiment 3): 52.8108
Raw data values in Figure 3g (SPR response) ([3]; S55746 concentration 20, BCL-2 concentration 200 nM, independent experiment 1): 93.1192
Raw data values in Figure 3g (SPR response) ([3]; S55746 concentration 20, BCL-2 concentration 250 nM, independent experiment 2): 349.701
Raw data values in Figure 3g (SPR response) ([3]; S55746 concentration 20, BCL-2 concentration 250 nM, independent experiment 3): 53.5404
Raw data values in Figure 3g (SPR response) ([3]; S55746 concentration 40, BCL-2 concentration 10 nM, independent experiment 1): 53.0775
Raw data values in Figure 3g (SPR response) ([3]; S55746 concentration 40, BCL-2 concentration 10 nM, independent experiment 2): 142.314
Raw data values in Figure 3g (SPR response) ([3]; S55746 concentration 40, BCL-2 concentration 10 nM, independent experiment 3): 29.9924
Raw data values in Figure 3g (SPR response) ([3]; S55746 concentration 40, BCL-2 concentration 20 nM, independent experiment 1): 66.1797
Raw data values in Figure 3g (SPR response) ([3]; S55746 concentration 40, BCL-2 concentration 20 nM, independent experiment 2): 204.771
Raw data values in Figure 3g (SPR response) ([3]; S55746 concentration 40, BCL-2 concentration 20 nM, independent experiment 3): 38.5613
Raw data values in Figure 3g (SPR response) ([3]; S55746 concentration 40, BCL-2 concentration 30 nM, independent experiment 1): 73.4709
Raw data values in Figure 3g (SPR response) ([3]; S55746 concentration 40, BCL-2 concentration 30 nM, independent experiment 2): 240.258
Raw data values in Figure 3g (SPR response) ([3]; S55746 concentration 40, BCL-2 concentration 30 nM, independent experiment 3): 42.9042
Raw data values in Figure 3g (SPR response) ([3]; S55746 concentration 40, BCL-2 concentration 40 nM, independent experiment 1): 77.7102
Raw data values in Figure 3g (SPR response) ([3]; S55746 concentration 40, BCL-2 concentration 40 nM, independent experiment 2): 263.387
Raw data values in Figure 3g (SPR response) ([3]; S55746 concentration 40, BCL-2 concentration 40 nM, independent experiment 3): 45.6376
Raw data values in Figure 3g (SPR response) ([3]; S55746 concentration 40, BCL-2 concentration 50 nM, independent experiment 1): 81.3114
Raw data values in Figure 3g (SPR response) ([3]; S55746 concentration 40, BCL-2 concentration 50 nM, independent experiment 2): 278.636
Raw data values in Figure 3g (SPR response) ([3]; S55746 concentration 40, BCL-2 concentration 50 nM, independent experiment 3): 47.2724
Raw data values in Figure 3g (SPR response) ([3]; S55746 concentration 40, BCL-2 concentration 60 nM, independent experiment 1): 83.6106
